Measured values published in patent publication US9248114B2, “Use of 2,5-dihydroxybenzene compounds and derivatives for the treatment of hematological dyscrasias and cancer of an organ” (Action Medicines, S.L., priority 2006, dated 2016).

Key:
[1] = tested on: subcutaneous gliomas (rat C6 glioma cells); assay: Progression of established subcutaneous C6 gliomas in rats; type: in vivo; conditions: i.p. 100 mg/kg/day for 10 days; for average size (volume) of subcutaneous gliomas: treatment started 5 days after implantation
Protocol: Rat C6 glioma cells were cultured as previously described (Cuevas P et al. Neurol Res, 2005). The C6 cells cultured to confluence in 75 cm^2 flasks were removed and implanted under the abdominal skin in anesthetized rats. The existence of a tumor in the implantation area was observed five days after the implantation of the tumor cells. Only the rats in which the existence of a tumor was observed were randomly assigned to be treated with daily intraperitoneal injections of 2,5-dihydroxybenzene sulfonate (DHBS; 100 mg/kg/day), 2,5-diacetoxybenzene sulfonate (DABS; 100 mg/kg/day) or the carrier (0.9% NaCl). After 10 days of treatment, the subcutaneous gliomas were removed and their volume was calculated according to the formula V=4/3π·(L/2)·(A/2)^2 (in mm^3) where L is the larger diameter and A is the smaller diameter, both expressed in mm.

[2] = biological target: T1, fibroblast growth factor-1 (FGF-1) (Homo sapiens, UniProt P05230); assay: Mitogenesis induced by FGF-1 in quiescent Balb/c 3T3 fibroblast cultures; type: cell-based; conditions: quiescent Balb/c 3T3 fibroblasts
T1 sequence (P05230 whole entry, species assumed): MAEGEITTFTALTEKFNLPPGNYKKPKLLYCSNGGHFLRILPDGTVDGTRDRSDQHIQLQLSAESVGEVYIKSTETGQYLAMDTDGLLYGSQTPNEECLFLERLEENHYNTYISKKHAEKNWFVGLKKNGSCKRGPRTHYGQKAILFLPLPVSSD
Protocol: The evaluated compounds were used in the form of potassium salt, except in the first case which used calcium salt. The experiments were carried out as described in Fernandez-Tornero C et al. J Biol Chem, 2003.

[3] = biological target: T1, fibroblast growth factor-1 (FGF-1); assay: Crystal diffraction of complexes with FGF-1; conditions: co-crystal, electron density contoured at 1σ; acetoxyl groups conserved on binding
Protocol: Based on the crystal diffraction of the FGF-1:2-acetoxy-5-hydroxybenzene sulfonic acid, FGF-1:5-acetoxy-2-hydroxybenzene sulfonic acid and FGF-1:2,5-diacetoxybenzene sulfonic acid complexes, the structures of the complexes were calculated and represented. FIGS. 13, 14 and 15, which show the surface of the dyed protein according to its electrostatic potential (light grey, negative charge; dark grey, positive charge; white, regions with no charge), show the manner in which 2-acetoxy-5-hydroxybenzene sulfonic acid, 5-acetoxy-2-hydroxybenzene sulfonic acid and 2,5-diacetoxybenzene sulfonic acid interact, respectively, with FGF-1.

[4] = tested on: rat glioma C6 cells; assay: Rat glioma C6 cell proliferation (crystal violet staining); type: cell-based; conditions: 48 h
Protocol: The cell line used was rat glioma C6 cells. The cells were cultured as previously described (Cuevas P et al. Neurol Res, 2005). The cells were cultured as adherent cells in Dulbecco's modified Eagle's medium, supplemented with 7.5% (v/v) of fetal bovine serum, 10 μg/ml of streptomycin and 10 units/ml of penicillin. The tumor cells were seeded in 24-well plates at a density of 10,000 cells/well, and were incubated at 37° C. in a humidified chamber with 5% CO2. Once adhered, the cells were treated or not (controls) with 2,5-dihydroxybenzoate at 100, 200, 500 or 1000 μM and they were allowed to proliferate for 48 h. After this time the glioma cell proliferation was evaluated by means of staining the fixed cells with crystal violet. The number of cells is proportional to the amount of retained dye, which was spectrophotometrically determined by measuring the absorbance at 595 nm once the dye was extracted from the cells.
(§1) The cell line used was the C6 cell line and the experiment was carried out as described in Example 2. Once adhered, the cells were treated or not (controls) with increasing concentrations of 2,5-DHC (10, 25, 50 and 100 μM) and they were allowed to proliferate for 48 h. After this time the glioma cell proliferation was evaluated by means of staining the fixed cells with crystal violet. The number of cells is proportional to the amount of retained dye, which was determined spectrophotometrically by measuring absorbance at 595 nm once the dye was extracted from the cells.
as §1, with “examples 2 and 3.” for “Example 2.”, “(5A-2HBS) (500 μM) or (2A-5HBS) (500” for “increasing concentrations of 2,5-DHC (10, 25, 50 and 100”, “measuring the” for “measuring”

[5] = tested on: human prostate cancer PC-3 cells; assay: Subcutaneous PC-3 prostate tumor implantation model in athymic mice; type: in vivo, athymic mice (Nu/Nu); conditions: 100 mg/kg daily i.p. for 15 days
Protocol: 5×10^6 human prostate cancer PC-3 cells were subcutaneously injected in male athymic mice (Nu/Nu) of 6-8 weeks of age and weighing 20-26 g. Ten days after the implantation of the tumor cells, the mice were randomly split into two groups: one of them received a daily injection of potassium 2,5-diacetoxybenzene sulfonate (DABS) by intraperitoneal route at a dose of 100 mg/kg dissolved in saline (0.9% NaCl) whereas the other group received a daily injection of carrier (saline). The treatments were administered for 15 days. The volumes of the tumors induced by the implantation of PC-3 cells were measured through the skin on alternating days using a Vernier caliper. The volume was calculated using the formula V=(D×2d)/2, where D is the larger diameter in mm, d is the smaller diameter in mm and V is the volume in mm3. At the end of treatment, the mice were sacrificed and the tumors were weighed.

[6] = tested on: tumor cells of subcutaneous gliomas; assay: Apoptosis in sections of established subcutaneous gliomas in rats; type: in vivo; conditions: 100 mg/kg/day i.p. for 10 days
Excerpt: Tumor cells elude the programmed cell death process or apoptosis that normal cells experience. Apoptosis induction in tumor cells is one way to confront the development of a tumor. To evaluate the effect of potassium 2,5-dihydroxybenzene sulfonate […] on tumor cell apoptosis, 6 μm thick sections of the subcutaneous gliomas described in example 4 were made. The sections were stained with hematoxylin and eosin and observed at a magnification of 313 times using immersion oil. In these conditions, cell apoptosis is shown by the existence of apoptotic bodies appearing as strongly chromogenic granules in the cell nucleus which is frequently fragmented.

[7] = tested on: bFGF-induced fibrosis; assay: bFGF-induced fibrosis around subcutaneously implanted gelatin sponges in rats; type: in vivo, Sprague-Dawley rats; conditions: 100 μM in gelatin sponge with bFGF and heparin, subcutaneous, 7 days
Protocol: Sterile gelatin sponges (1 mm^3; Curaspon Dental, Clinimed Holding, Zwanenburg, The Netherlands) were subcutaneously implanted in the dorsal region of the neck in Sprague-Dawley rats after the induction of intraperitoneal anesthesia. The animals were split into two groups: group A, the sponges were moistened with 200 μl of saline solution which contained 25 μg/ml of heparin and 10 μg/ml of basic FGF (bFGF); group B, the sponges were moistened in the same solution as in group A, but which solution further contained 2,5-dihydroxybenzoate (100 μM). After 7 days, the sponges and the surrounding subcutaneous fat were removed and histologically analyzed.

| Structure (SMILES) | average size (volume) of subcutaneous gliomas [1] | mitogenesis induced by FGF-1 [2] | binding site on FGF-1 in the crystal complex [3] | rat glioma cell proliferation ([4]; 500 μM) | further results |
| --- | --- | --- | --- | --- | --- |
| O=S(=O)([O-])c1cc(O)ccc1O.[K+] [DHBS, potassium 2,5-dihydroxybenzene sulfonate, reference compound] | less than that of the rats treated with carrier | inhibition of the mitogenesis | – | – | – |
| CC(=O)Oc1ccc(O)c(S(=O)(=O)[O-])c1.[K+] [5A-2HBS, potassium 5-acetoxy-2-hydroxybenzene sulfonate] | – | inhibition of mitogenesis | occupy a site that is very close to the one that has been described occupied by 2,5-dihydroxybenzene sulfonic acid | caused the inhibition of rat glioma cell proliferation | – |
| CC(=O)Oc1ccc(O)cc1S(=O)(=O)[O-].[K+] [2A-5HBS, potassium 2-acetoxy-5-hydroxybenzene sulfonate] | – | inhibition of mitogenesis | occupy a site that is very close to the one that has been described occupied by 2,5-dihydroxybenzene sulfonic acid | caused the inhibition of rat glioma cell proliferation | – |
| CC(=O)Oc1ccc(OC(C)=O)c(S(=O)(=O)[O-])c1.[K+] [DABS, potassium 2,5-diacetoxybenzene sulfonate] | even less | inhibition of mitogenesis | occupy a site that is very close to the one that has been described occupied by 2,5-dihydroxybenzene sulfonic acid | – | probability of being tumor-free (χ2 test) versus group treated with DHBS [1]: greater probability of being tumor-free; weight of the extracted tumor when treatment ended [5]: significant reduction; tumor growth (tumor volume measured through the skin) ([5]; started 10 days after implantation): significantly reduced; tumor cells in apoptosis in glioma sections (hematoxylin and eosin) [6]: a large number of tumor cells in apoptosis |
| O=C(O)c1cc(O)ccc1O [2,5-dihydroxybenzoate, 2,5-dihydroxybenzoic acid] | – | – | – | – | rat glioma C6 cell proliferation, significance of the effect ([4]; 500 μM): statistically significant; rat glioma C6 cell proliferation, significance of the effect ([4]; 1000 μM): statistically significant; rat glioma C6 cell proliferation (absorbance at 595 nm) ([4]; 100, 200, 500 or 1000 μM): inhibited rat glioma C6 cell proliferation in a concentration-dependent manner; bFGF-induced fibrosis (fibroblasts in septa of connective tissue of adipose tissue) [7]: reduces bFGF-induced fibrosis |
